Assay results reported in PMC2063130, “Reversal of P-glycoprotein-mediated multidrug resistance by XR9051, a novel diketopiperazine derivative” (British Journal of Cancer, 1998).

How the values were obtained:
P-glycoprotein [1] = biological target: T1, P-glycoprotein (Cricetulus griseus, UniProt P21448); assay: displacement of [3H]vinblastine equilibrium binding, rapid filtration; conditions: read-out: EC50 (the source's name)
T1 construct: gene ABCB1; CHrB30 plasma membranes

P-glycoprotein [2] = biological target: T1, P-glycoprotein; assay: radioligand filtration binding; no specific binding in parental AuxB1 membranes (Kd […] is quoted from earlier work)

T1 sequence (P21448 whole entry): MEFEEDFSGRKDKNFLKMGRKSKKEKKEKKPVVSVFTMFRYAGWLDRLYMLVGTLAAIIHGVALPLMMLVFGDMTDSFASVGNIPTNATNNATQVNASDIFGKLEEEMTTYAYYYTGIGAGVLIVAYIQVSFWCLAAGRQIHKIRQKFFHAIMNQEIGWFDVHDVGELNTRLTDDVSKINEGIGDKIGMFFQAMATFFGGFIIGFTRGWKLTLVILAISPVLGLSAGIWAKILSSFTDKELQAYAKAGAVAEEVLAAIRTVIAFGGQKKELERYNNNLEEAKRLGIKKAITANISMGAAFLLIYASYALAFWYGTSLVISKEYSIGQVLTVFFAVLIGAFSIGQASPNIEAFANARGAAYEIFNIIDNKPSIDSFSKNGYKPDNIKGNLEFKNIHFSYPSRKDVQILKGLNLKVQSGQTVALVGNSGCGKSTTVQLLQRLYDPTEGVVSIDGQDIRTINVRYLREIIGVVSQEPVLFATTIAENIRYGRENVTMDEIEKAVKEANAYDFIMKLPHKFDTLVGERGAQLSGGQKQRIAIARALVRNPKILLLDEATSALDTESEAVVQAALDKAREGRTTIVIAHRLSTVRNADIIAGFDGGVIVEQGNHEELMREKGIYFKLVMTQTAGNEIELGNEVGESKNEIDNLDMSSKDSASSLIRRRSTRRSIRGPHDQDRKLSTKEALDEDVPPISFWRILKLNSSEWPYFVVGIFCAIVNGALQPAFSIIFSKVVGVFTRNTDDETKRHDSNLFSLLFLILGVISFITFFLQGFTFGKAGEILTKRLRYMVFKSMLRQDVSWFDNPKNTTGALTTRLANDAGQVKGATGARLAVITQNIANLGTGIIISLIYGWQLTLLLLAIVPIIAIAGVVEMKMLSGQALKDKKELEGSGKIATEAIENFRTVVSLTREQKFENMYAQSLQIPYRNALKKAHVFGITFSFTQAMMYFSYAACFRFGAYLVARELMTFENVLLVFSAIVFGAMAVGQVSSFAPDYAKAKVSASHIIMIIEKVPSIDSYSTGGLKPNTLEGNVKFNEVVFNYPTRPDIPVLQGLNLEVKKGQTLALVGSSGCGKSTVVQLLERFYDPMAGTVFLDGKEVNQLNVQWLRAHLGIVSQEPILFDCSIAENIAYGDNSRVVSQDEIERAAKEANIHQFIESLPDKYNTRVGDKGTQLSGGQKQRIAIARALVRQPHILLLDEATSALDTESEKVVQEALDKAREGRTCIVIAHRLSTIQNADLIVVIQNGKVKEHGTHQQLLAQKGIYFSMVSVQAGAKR

IC50 (P-glycoprotein [1]) [nM] | Structure (SMILES) | radioligand filtration binding; no specific binding in parental AuxB1 membranes (P-glycoprotein [2])
1.4 | COc1cc2c(cc1OC)CN(CCc1ccc(NC(=O)c3cccc(/C=c4\[nH]c(=O)/c(=C/c5ccccc5)n(C)c4=O)c3)cc1)CC2 [XR9051, N-(4-(2-(6,7-Dimethoxy-1,2,3,4-tetrahydro-2-isoquinolyl)ethyl)phenyl)-3-((3Z,6Z)-6-benzylidene-1-methyl-2,5-dioxo-3-piperazinylidene) methylbenzamide] | 
 | CC[C@]1(O)C[C@@H]2CN(CCc3c([nH]c4ccccc34)[C@@](C(=O)OC)(c3cc4c(cc3OC)N(C)[C@H]3[C@@](O)(C(=O)OC)[C@H](OC(C)=O)[C@]5(CC)C=CCN6CC[C@]43[C@@H]65)C2)C1 [vinblastine] | A rapid filtration assay was used to determine the equilibrium
